Experimental data taken from PMC10587743 (RSC Advances, 2023).
Read-outs that look alike come from different tables or passages of the source.

Columns and labels:
[1] = test system: A549 lung cancer cell lines; settings: cited from earlier work
[2] = test system: MCF-7 breast cancer cell line; assay: MTT cytotoxicity assay, MCF-7; settings: Homo sapiens, MCF7, read-out: In vitro cytotoxicity IC50, MCF-7
[3] = test system: HePG2 liver cancer cell line; assay: MTT cytotoxicity assay, HePG2; assay type: cell-based; settings: Homo sapiens, HepG2, read-out: In vitro cytotoxicity IC50, HePG2
[4] = test system: HCT-116 colon cancer cell line; assay: MTT cytotoxicity assay, HCT-116; settings: Homo sapiens, HCT-116, read-out: In vitro cytotoxicity IC50, HCT-116
[5] = target: EGFR TK (Homo sapiens, UniProt P00533); assay: EGFR kinase inhibition assay; assay type: biochemical
[6] = test system: HePG-2, HCT-116, and MCF-7 cell lines; assay: MTT cytotoxicity, range over the three cell lines; assay type: cell-based; settings: 144 h, read-out: IC50 values ranging over HePG-2, HCT-116, and MCF-7 cell lines
[7] = test system: P-gp in HepG-2/ADR cells; assay: Quantitative real-time PCR for P-glycoprotein; assay type: cell-based, human; settings: 72 h, control HepG2 = 1
[8] = target: CDK-2 (Homo sapiens, UniProt P24941); assay: CDK-2 kinase inhibition assay; assay type: biochemical
[9] = test system: HCT-116 cells; assay: Cell cycle analysis by flow cytometry; assay type: cell-based; settings: HCT-116, 6o at IC50 (5.84 μM); control 42.94%
[10] = test system: HCT-116 cells; assay: Annexin V-FITC/PI apoptosis assay; assay type: cell-based; settings: HCT-116, 6o at IC50
[11] = test system: leukemia L1210 cells; settings: read-out: IC50 against leukemia L1210 cells; cited from earlier work
[12] = test system: breast cancer cell line (MCF-7); settings: read-out: IC50 on breast cancer cell line (MCF-7); cited from earlier work

Chain of EGFR TK (P00533 25-1210): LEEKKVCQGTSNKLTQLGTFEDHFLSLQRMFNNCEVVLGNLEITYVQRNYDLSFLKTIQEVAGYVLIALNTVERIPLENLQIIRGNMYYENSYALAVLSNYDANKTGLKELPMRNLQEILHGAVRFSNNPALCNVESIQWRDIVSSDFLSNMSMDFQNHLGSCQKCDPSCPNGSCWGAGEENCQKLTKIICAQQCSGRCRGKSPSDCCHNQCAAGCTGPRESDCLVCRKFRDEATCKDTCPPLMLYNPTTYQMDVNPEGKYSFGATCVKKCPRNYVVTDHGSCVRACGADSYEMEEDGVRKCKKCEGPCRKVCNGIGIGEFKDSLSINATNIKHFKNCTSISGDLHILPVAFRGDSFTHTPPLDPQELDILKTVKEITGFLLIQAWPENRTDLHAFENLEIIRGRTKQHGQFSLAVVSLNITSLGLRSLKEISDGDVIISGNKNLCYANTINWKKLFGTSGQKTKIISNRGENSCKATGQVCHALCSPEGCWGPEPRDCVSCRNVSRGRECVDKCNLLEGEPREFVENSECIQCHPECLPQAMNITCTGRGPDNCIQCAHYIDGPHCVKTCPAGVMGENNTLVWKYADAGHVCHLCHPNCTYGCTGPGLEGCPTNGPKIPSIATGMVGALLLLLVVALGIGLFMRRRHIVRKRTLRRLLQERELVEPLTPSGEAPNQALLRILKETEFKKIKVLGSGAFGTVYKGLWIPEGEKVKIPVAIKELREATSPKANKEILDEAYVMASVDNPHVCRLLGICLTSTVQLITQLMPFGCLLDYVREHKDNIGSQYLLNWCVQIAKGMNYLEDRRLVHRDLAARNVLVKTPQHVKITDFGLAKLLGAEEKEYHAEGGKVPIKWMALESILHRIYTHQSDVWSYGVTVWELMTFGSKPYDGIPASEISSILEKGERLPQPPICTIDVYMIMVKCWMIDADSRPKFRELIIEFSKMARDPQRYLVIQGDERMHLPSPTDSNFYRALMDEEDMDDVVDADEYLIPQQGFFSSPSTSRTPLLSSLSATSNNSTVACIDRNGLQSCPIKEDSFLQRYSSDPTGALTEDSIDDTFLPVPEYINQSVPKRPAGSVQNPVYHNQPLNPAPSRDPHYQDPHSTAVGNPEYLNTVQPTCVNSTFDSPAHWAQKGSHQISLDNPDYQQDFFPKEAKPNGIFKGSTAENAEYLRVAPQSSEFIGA

SMILES | IC50 [2] | IC50 [3] | IC50 [4] | further results
O=c1[nH]cc(F)c(=O)[nH]1 [5-fluorouracil] |  |  |  | IC50 ([1]; read-out: IC50 against A549 lung cancer cell lines): < 5 µM
N#Cc1c(N2C(=O)c3ccc(F)cc3C2=O)c(C(=O)Nc2ccccc2)n2c1CCC2 [Compound 6a, 7-Cyano-6-(5-fluoro-1,3-dioxoisoindolin-2-yl)-N-phenyl-2,3-dihydro-1H-pyrrolizine-5-carboxamide] | 93.5 ± 4.7 µM | 85.1 ± 4.1 µM | > 100 µM | 
Cc1ccc(NC(=O)c2c(N3C(=O)c4ccc(F)cc4C3=O)c(C#N)c3n2CCC3)cc1 [Compound 6b, 7-Cyano-6-(5-fluoro-1,3-dioxoisoindolin-2-yl)-N-(p-tolyl)-2,3-dihydro-1H-pyrrolizine-5-carboxamide] | 58.1 ± 3.3 µM | 55.4 ± 3.2 µM | 66.3 ± 3.1 µM | 
N#Cc1c(N2C(=O)c3ccccc3C2=O)c(C(=O)Nc2ccc(F)cc2)n2c1CCC2 [Compound 6c, 7-Cyano-6-(1,3-dioxoisoindolin-2-yl)-N-(4-fluorophenyl)-2,3-dihydro-1H-pyrrolizine-5-carboxamide] | 54.6 ± 3.1 µM | 49.1 ± 2.9 µM | 47.9 ± 2.6 µM | 
N#Cc1c(N2C(=O)c3ccc(F)cc3C2=O)c(C(=O)Nc2ccc(F)cc2)n2c1CCC2 [Compound 6d, 7-Cyano-6-(5-fluoro-1,3-dioxoisoindolin-2-yl)-N-(4-fluorophenyl)-2,3-dihydro-1H-pyrrolizine-5-carboxamide] | 13.9 ± 0.9 µM | 7.97 ± 0.5 µM | 9.49 ± 0.6 µM | IC50 [5]: 0.362 ± 0.008 µM; IC50 [6]: 6.02 to 13.9 µM; P-gp RT-PCR fold change [7]: 0.4097 fold
COc1ccc(NC(=O)c2c(N3C(=O)c4ccccc4C3=O)c(C#N)c3n2CCC3)cc1 [Compound 6e, 7-Cyano-6-(1,3-dioxoisoindolin-2-yl)-N-(4-methoxyphenyl)-2,3-dihydro-1H-pyrrolizine-5-carboxamide] | 42.7 ± 2.5 µM | 45.4 ± 2.5 µM | 38.1 ± 2.4 µM | 
COc1ccc(NC(=O)c2c(N3C(=O)c4ccc(F)cc4C3=O)c(C#N)c3n2CCC3)cc1 [Compound 6f, 7-Cyano-6-(5-fluoro-1,3-dioxoisoindolin-2-yl)-N-(4-methoxyphenyl)-2,3-dihydro-1H-pyrrolizine-5-carboxamide] | > 100 µM | 88.3 ± 4.3 µM | > 100 µM | 
N#Cc1c(N2C(=O)c3ccc(F)cc3C2=O)c(C(=O)Nc2ccc(Cl)cc2)n2c1CCC2 [Compound 6g, N-(4-Chlorophenyl)-7-cyano-6-(5-fluoro-1,3-dioxoisoindolin-2-yl)-2,3-dihydro-1H-pyrrolizine-5-carboxamide] | 69.4 ± 3.7 µM | 52 ± 2.8 µM | 60.2 ± 3.3 µM | 
N#Cc1c(N2C(=O)c3ccccc3C2=O)c(C(=O)Nc2ccc(Br)cc2)n2c1CCC2 [Compound 6h, N-(4-Bromophenyl)-7-cyano-6-(1,3-dioxoisoindolin-2-yl)-2,3-dihydro-1H-pyrrolizine-5-carboxamide] | > 100 µM | 91.4 ± 4.8 µM | > 100 µM | 
N#Cc1c(N2C(=O)c3ccc(F)cc3C2=O)c(C(=O)Nc2ccc(Br)cc2)n2c1CCC2 [Compound 6i, N-(4-Bromophenyl)-7-cyano-6-(5-fluoro-1,3-dioxoisoindolin-2-yl)-2,3-dihydro-1H-pyrrolizine-5-carboxamide] | 25.3 ± 2 µM | 20.4 ± 1.5 µM | 14.3 ± 1.1 µM | 
N#Cc1c(N2C(=O)c3ccccc3C2=O)c(C(=O)Nc2ccccc2)n2c1CCCC2 [Compound 6j, 1-Cyano-2-(1,3-dioxoisoindolin-2-yl)-N-phenyl-5,6,7,8-tetrahydroindolizine-3-carboxamide] | 31.3 ± 2.3 µM | 34.1 ± 1.9 µM | 22.1 ± 1.6 µM | 
N#Cc1c(N2C(=O)c3ccc(F)cc3C2=O)c(C(=O)Nc2ccccc2)n2c1CCCC2 [Compound 6k, 1-Cyano-2-(5-fluoro-1,3-dioxoisoindolin-2-yl)-N-phenyl-5,6,7,8-tetrahydroindolizine-3-carboxamide] | 80.6 ± 4.1 µM | 78.2 ± 3.8 µM | 83.7 ± 4 µM | 
Cc1ccc(NC(=O)c2c(N3C(=O)c4ccccc4C3=O)c(C#N)c3n2CCCC3)cc1 [Compound 6l, 1-Cyano-2-(1,3-dioxoisoindolin-2-yl)-N-(p-tolyl)-5,6,7,8-tetrahydroindolizine-3-carboxamide] | 63.2 ± 3.5 µM | 61.6 ± 3.5 µM | 57.5 ± 3.1 µM | 
Cc1ccc(NC(=O)c2c(N3C(=O)c4ccc(F)cc4C3=O)c(C#N)c3n2CCCC3)cc1 [Compound 6m, 1-Cyano-2-(5-fluoro-1,3-dioxoisoindolin-2-yl)-N-(p-tolyl)-5,6,7,8-tetrahydroindolizine-3-carboxamide] | 19.9 ± 1.4 µM | 12 ± 0.8 µM | 28.4 ± 1.9 µM | IC50 [5]: 0.13 ± 0.011 µM; IC50 [8]: 0.402 ± 0.086 µM; P-gp RT-PCR fold change [7]: 0.6754 fold
N#Cc1c(N2C(=O)c3ccccc3C2=O)c(C(=O)Nc2ccc(F)cc2)n2c1CCCC2 [Compound 6n, 1-Cyano-2-(1,3-dioxoisoindolin-2-yl)-N-(4-fluorophenyl)-5,6,7,8-tetrahydroindolizine-3-carboxamide] | 75.8 ± 3.9 µM | 65.4 ± 3.7 µM | 71.3 ± 3.5 µM | 
N#Cc1c(N2C(=O)c3ccc(F)cc3C2=O)c(C(=O)Nc2ccc(F)cc2)n2c1CCCC2 [Compound 6o, 1-Cyano-2-(5-fluoro-1,3-dioxoisoindolin-2-yl)-N-(4-fluorophenyl)-5,6,7,8-tetrahydroindolizine-3-carboxamide] | 8.89 ± 0.5 µM | 6.02 ± 0.3 µM | 5.84 ± 0.2 µM | IC50 [5]: 0.062 ± 0.003 µM; Cells in G1 phase [9]: 48.75%; IC50 [6]: 6.02 to 13.9 µM; IC50 [8]: 0.118 ± 0.016 µM; P-gp RT-PCR fold change [7]: 0.2732 fold; Late cellular apoptosis ([10]; DMSO control 0.16%, upper right quadrant): 26.51%; Early cellular apoptosis ([10]; DMSO control 0.52%, lower right quadrant): 15.16%; Total cellular apoptosis ([10]; DMSO control 2.61%): 49.16%
COc1ccc(NC(=O)c2c(N3C(=O)c4ccccc4C3=O)c(C#N)c3n2CCCC3)cc1 [Compound 6p, 1-Cyano-2-(1,3-dioxoisoindolin-2-yl)-N-(4-methoxyphenyl)-5,6,7,8-tetrahydroindolizine-3-carboxamide] | 86.9 ± 4.3 µM | 73.3 ± 3.9 µM | 79.6 ± 3.7 µM | 
COc1ccc(NC(=O)c2c(N3C(=O)c4ccc(F)cc4C3=O)c(C#N)c3n2CCCC3)cc1 [Compound 6q, 1-Cyano-2-(5-fluoro-1,3-dioxoisoindolin-2-yl)-N-(4-methoxyphenyl)-5,6,7,8-tetrahydroindolizine-3-carboxamide] | 37.4 ± 2.6 µM | 41.2 ± 2.3 µM | 32.2 ± 2.2 µM | 
COc1cccc2c1C(=O)c1c(O)c3c(c(O)c1C2=O)C[C@@](O)(C(=O)CO)C[C@@H]3O[C@H]1C[C@H](N)[C@H](O)[C@H](C)O1 [DOX, Doxorubicin, reference compound] |  | 4.5 ± 0.2 µM |  | 
O=C(c1ccccc1)c1ccc2n1CCC2C(=O)O (centres unmarked) [Ketorolac] |  |  |  | IC50 ([1]; read-out: IC50 against lung cancer cell lines A549): ~13 µM
COc1ccc(-c2csc3c2-n2cccc2C3=O)cc1O [MR22388] |  |  |  | IC50 [11]: 0.015 µM
CC/C(=C(\c1ccccc1)c1ccc(OCCN(C)C)cc1)c1ccccc1 [Tamoxifen, reference compound] |  |  |  | P-gp RT-PCR fold change [7]: 0.2176 fold
CC1(C)Cc2c(-c3ccccc3)c(-c3ccc(Cl)cc3)c(CC(=O)O)n2C1 [licofelone] |  |  |  | IC50 [12]: 5.5 µM
